The NIST ThermoML archive (doi:10.1021/acs.jced.7b00769)

Assay: xn = mol fraction of the nth substance listed
Conditions: Gas, isochoric method

F/C=C\C(F)(F)F [(Z)-1,3,3,3-tetrafluoro-1-propene] + CC(C)C
Conditions | specific volume [m3/kg]
303.15 K, 145.9 kPa, x2 = 0.118 | 0.152
303.15 K, 155.7 kPa, x2 = 0.222 | 0.1514
303.15 K, 206.5 kPa, x2 = 0.427 | 0.127
303.15 K, 213.5 kPa, x2 = 0.51 | 0.1286
308.15 K, 148.7 kPa, x2 = 0.118 | 0.152
308.15 K, 158.6 kPa, x2 = 0.222 | 0.1514
308.15 K, 210.5 kPa, x2 = 0.427 | 0.127
308.15 K, 217.4 kPa, x2 = 0.51 | 0.1286
313.15 K, 151.4 kPa, x2 = 0.118 | 0.1521
313.15 K, 161.5 kPa, x2 = 0.222 | 0.1515
313.15 K, 214.4 kPa, x2 = 0.427 | 0.1271
313.15 K, 221.3 kPa, x2 = 0.51 | 0.1286
313.15 K, 398.1 kPa, x2 = 0.658 | 0.0757
318.15 K, 154 kPa, x2 = 0.118 | 0.1521
318.15 K, 164.3 kPa, x2 = 0.222 | 0.1515
318.15 K, 218.3 kPa, x2 = 0.427 | 0.1271
318.15 K, 225.2 kPa, x2 = 0.51 | 0.1287
318.15 K, 362.3 kPa, x2 = 0.725 | 0.0906
318.15 K, 406.6 kPa, x2 = 0.658 | 0.0758
323.15 K, 156.8 kPa, x2 = 0.118 | 0.1521
323.15 K, 167.2 kPa, x2 = 0.222 | 0.1515
323.15 K, 222.2 kPa, x2 = 0.427 | 0.1271
323.15 K, 229.2 kPa, x2 = 0.51 | 0.1287
323.15 K, 369.1 kPa, x2 = 0.725 | 0.0906
323.15 K, 414.5 kPa, x2 = 0.658 | 0.0758
328.15 K, 159.4 kPa, x2 = 0.118 | 0.1522
328.15 K, 170 kPa, x2 = 0.222 | 0.1516
328.15 K, 226 kPa, x2 = 0.427 | 0.1271
328.15 K, 233.1 kPa, x2 = 0.51 | 0.1287
328.15 K, 375.8 kPa, x2 = 0.725 | 0.0906
328.15 K, 423.1 kPa, x2 = 0.658 | 0.0758
333.15 K, 162 kPa, x2 = 0.118 | 0.1522
333.15 K, 172.7 kPa, x2 = 0.222 | 0.1516
333.15 K, 229.8 kPa, x2 = 0.427 | 0.1272
333.15 K, 237 kPa, x2 = 0.51 | 0.1287
333.15 K, 382.5 kPa, x2 = 0.725 | 0.0907
333.15 K, 430.7 kPa, x2 = 0.658 | 0.0758
338.15 K, 164.6 kPa, x2 = 0.118 | 0.1522
338.15 K, 175.4 kPa, x2 = 0.222 | 0.1516
338.15 K, 233.6 kPa, x2 = 0.427 | 0.1272
338.15 K, 240.9 kPa, x2 = 0.51 | 0.1288
338.15 K, 389.1 kPa, x2 = 0.725 | 0.0907
338.15 K, 438.4 kPa, x2 = 0.658 | 0.0758
343.15 K, 167.2 kPa, x2 = 0.118 | 0.1523
343.15 K, 178.2 kPa, x2 = 0.222 | 0.1517
343.15 K, 237.3 kPa, x2 = 0.427 | 0.1272
343.15 K, 244.7 kPa, x2 = 0.51 | 0.1288
343.15 K, 395.8 kPa, x2 = 0.725 | 0.0907
343.15 K, 446 kPa, x2 = 0.658 | 0.0758
348.15 K, 169.8 kPa, x2 = 0.118 | 0.1523
348.15 K, 180.8 kPa, x2 = 0.222 | 0.1517
348.15 K, 241.1 kPa, x2 = 0.427 | 0.1272
348.15 K, 248.6 kPa, x2 = 0.51 | 0.1288
348.15 K, 402.5 kPa, x2 = 0.725 | 0.0907
348.15 K, 453.6 kPa, x2 = 0.658 | 0.0759
353.15 K, 172.5 kPa, x2 = 0.118 | 0.1523
353.15 K, 183.7 kPa, x2 = 0.222 | 0.1517
353.15 K, 244.7 kPa, x2 = 0.427 | 0.1273
353.15 K, 252.4 kPa, x2 = 0.51 | 0.1288
353.15 K, 409.1 kPa, x2 = 0.725 | 0.0907
353.15 K, 461.2 kPa, x2 = 0.658 | 0.0759
358.15 K, 175.1 kPa, x2 = 0.118 | 0.1524
358.15 K, 186.5 kPa, x2 = 0.222 | 0.1518
358.15 K, 248.6 kPa, x2 = 0.427 | 0.1273
358.15 K, 256.3 kPa, x2 = 0.51 | 0.1289
358.15 K, 415.6 kPa, x2 = 0.725 | 0.0908
358.15 K, 468.5 kPa, x2 = 0.658 | 0.0759
363.15 K, 177.7 kPa, x2 = 0.118 | 0.1524
363.15 K, 189.4 kPa, x2 = 0.222 | 0.1518
363.15 K, 252.3 kPa, x2 = 0.427 | 0.1273
363.15 K, 260.1 kPa, x2 = 0.51 | 0.1289
363.15 K, 422.1 kPa, x2 = 0.725 | 0.0908
363.15 K, 476 kPa, x2 = 0.658 | 0.0759
368.15 K, 180.3 kPa, x2 = 0.118 | 0.1524
368.15 K, 192.1 kPa, x2 = 0.222 | 0.1518
368.15 K, 256 kPa, x2 = 0.427 | 0.1274
368.15 K, 263.9 kPa, x2 = 0.51 | 0.1289
368.15 K, 428.6 kPa, x2 = 0.725 | 0.0908
368.15 K, 483.4 kPa, x2 = 0.658 | 0.0759
373.15 K, 182.9 kPa, x2 = 0.118 | 0.1525
373.15 K, 194.9 kPa, x2 = 0.222 | 0.1519
373.15 K, 259.8 kPa, x2 = 0.427 | 0.1274
373.15 K, 267.8 kPa, x2 = 0.51 | 0.129
373.15 K, 435.2 kPa, x2 = 0.725 | 0.0908
373.15 K, 490.9 kPa, x2 = 0.658 | 0.0759
378.15 K, 185.5 kPa, x2 = 0.118 | 0.1525
378.15 K, 197.7 kPa, x2 = 0.222 | 0.1519
378.15 K, 263.6 kPa, x2 = 0.427 | 0.1274
378.15 K, 271.7 kPa, x2 = 0.51 | 0.129
378.15 K, 441.7 kPa, x2 = 0.725 | 0.0908
378.15 K, 498.2 kPa, x2 = 0.658 | 0.076
383.15 K, 188.1 kPa, x2 = 0.118 | 0.1525
383.15 K, 200.5 kPa, x2 = 0.222 | 0.1519
383.15 K, 267.4 kPa, x2 = 0.427 | 0.1274
383.15 K, 275.5 kPa, x2 = 0.51 | 0.129
383.15 K, 448.3 kPa, x2 = 0.725 | 0.0909
383.15 K, 505.8 kPa, x2 = 0.658 | 0.076
